Reference: US20260258048A1, “LACTAM-CONTAINING IMIDAZOPYRIDAZINE IL-17 INHIBITOR COMPOUNDS” (Janssen Pharmaceutica NV, priority 2023, published 2026)

How the values were obtained:
[1] = biological target: IL-17A(FLAG-tagged): IL-17RA(His-tagged) (Homo sapiens, UniProt Q16552, K93Q); assay: IL-17A(FLAG-tagged): IL-17RA(His-tagged) binding disruption Eu-HTRF assay
Summary of the method: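 Compound (22-point, 2-fold series) was pre-incubated 1 h at rt with FLAG-IL-17A, added as a 2× solution (1 μM). A 2× mix of C-terminal 10×His IL-17RA, Eu-anti-FLAG donor and D2-anti-His acceptor in PBS/0.01% Triton X-100/200 mM KF was then added for 2 h at rt. The 665/615 nm ratio was fitted to one-site competition for IC50.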

[2] = test system: IL-17A-induced G-CSF production in human normal keratinocyte (NHK); assay: NHK assay: IL-17A-induced G-CSF production in normal human keratinocytes; assay type: cell-based; conditions: IL-17A 5 ng/mL, 24 h
Summary of the method: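 Adult keratinocytes at 3000-4000 cells/well; recombinant human IL-17A pre-incubated 1 h at rt with titrated compound, then added to cells (final 5 ng/mL IL-17A, 0.2% DMSO, 5% FBS) for 24 h at 37 °C. Supernatant G-CSF quantified by HTRF against a standard curve to give IC50; viability checked by CellTiter-Glo versus DMSO.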

[3] = class of the average IC50 where tested more than once
[4] = Homo sapiens, Keratinocyte, class of the average IC50 where tested more than once

UniProt Q16552, sequence (Q16552 with tags, fused parts or gaps K93Q): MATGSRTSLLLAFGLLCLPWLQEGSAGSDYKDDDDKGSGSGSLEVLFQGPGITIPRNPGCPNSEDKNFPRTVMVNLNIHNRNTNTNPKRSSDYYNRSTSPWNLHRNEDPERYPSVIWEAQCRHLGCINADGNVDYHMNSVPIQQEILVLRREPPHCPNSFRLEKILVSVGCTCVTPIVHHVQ

| SMILES | IC50 [1, 3] [µM] | potency increase in the HTRF IC50 when compared to its C-3 epimer ([1]; (S)-configuration on C-3 (cis) vs (R)-epimer (trans): Example 51 vs 52, Example 59 vs 60) | IC50 ([1]; value in brackets, Table 4) [µM] | IC50 [2, 3] [µM] | IC50 [2, 4] [µM] | IC50 ([2]; Homo sapiens, Keratinocyte, value in brackets, Table 4) [µM] |
| --- | --- | --- | --- | --- | --- | --- |
| CC(C)(CC[C@H](NC(=O)c1nonc1C1CC1)c1cn2ncc(CC3C[C@@](C)(C(F)(F)F)NC3=O)cc2n1)C(F)(F)F (single isomer, unassigned) [Example 58, 4-Cyclopropyl-N—((S)-5,5,5-trifluoro-4,4-dimethyl-1-(7-(((3R*,5S)-5-methyl-2-oxo-5-(trifluoromethyl)pyrrolidin-3-yl)methyl)imidazo[1,2-b]pyridazin-2-yl)pentyl)-1,2,5-oxadiazole-3-carboxamide] | < 0.4 |  |  | 0.4 to 4 |  |  |
| C[C@]1(Cc2cnn3cc([C@@H](NC(=O)c4nonc4C4CC4)C4CCC(F)(F)CC4)nc3c2)C[C@@H](C(F)(F)F)NC1=O (single isomer, unassigned) [Example 97] | < 0.4 |  |  |  | < 0.4 |  |
| Cc1nonc1C(=O)N[C@H](c1cn2ncc(CC3(CC#N)C[C@@H](C(F)(F)F)NC3=O)cc2n1)C1CCC(F)(F)CC1 (single isomer, unassigned) [Example 103, N—((S)-(7-(((3S*,5S)-3-(Cyanomethyl)-2-oxo-5-(trifluoromethyl)pyrrolidin-3-yl)methyl)imidazo[1,2-b]pyridazin-2-yl)(4,4-difluorocyclohexyl)methyl)-4-methyl-1,2,5-oxadiazole-3-carboxamide] | < 0.4 |  |  |  | < 0.4 |  |
| N#CCC1(Cc2cnn3cc([C@@H](NC(=O)c4nonc4C4CC4)C4CCC(F)(F)CC4)nc3c2)C[C@@H](C(F)(F)F)NC1=O (single isomer, unassigned) [Example 104, N—((S)-(7-(((3S*,5S)-3-(Cyanomethyl)-2-oxo-5-(trifluoromethyl)pyrrolidin-3-yl)methyl)imidazo[1,2-b]pyridazin-2-yl)(4,4-difluorocyclohexyl)methyl)-4-cyclopropyl-1,2,5-oxadiazole-3-carboxamide] | < 0.4 |  |  |  | < 0.4 |  |
| CC(C)n1nccc1C(=O)N[C@H](c1cn2ncc(C[C@H]3C[C@@H](C(F)(F)F)NC3=O)cc2n1)C1CCC(F)(F)CC1 [Example 51, N—((S)-(4,4-Difluorocyclohexyl)(7-(((3S,5S)-2-oxo-5-(trifluoromethyl)pyrrolidin-3-yl)methyl)imidazo[1,2-b]pyridazin-2-yl)methyl)-1-isopropyl-1H-pyrazole-5-carboxamide] | < 0.4 | more than 100 fold | 0.15 |  | < 0.4 | 0.05 |

Now from value to compound, other results behind:

| IC50 [1, 3] [µM] | potency increase in the HTRF IC50 when compared to its C-3 epimer ([1]; (S)-configuration on C-3 (cis) vs (R)-epimer (trans): Example 51 vs 52, Example 59 vs 60) | IC50 ([1]; value in brackets, Table 4) [µM] | SMILES | IC50 [2, 3] [µM] | IC50 [2, 4] [µM] | IC50 ([2]; Homo sapiens, Keratinocyte, value in brackets, Table 4) [µM] |
| --- | --- | --- | --- | --- | --- | --- |
| > 4 |  |  | O=C(N[C@H](c1cn2ncc([C@@H](O)[C@@H]3C[C@H](C(F)(F)F)NC3=O)cc2n1)C1CCC(F)(F)CC1)c1nonc1C1CC1 (single isomer, unassigned) [Example 76] |  | 0.4 to 4 |  |
| 0.4 to 4 |  |  | C[C@@H](c1cnn2cc([C@@H](NC(=O)c3nonc3C3CC3)C3CCC(F)(F)CC3)nc2c1)[C@@H]1C[C@@H](C(F)(F)F)NC1=O (single isomer, unassigned) [Example 80, 4-Cyclopropyl-N—((S)-(4,4-difluorocyclohexyl(7-((R*)-1-((3S*,5S)-2-oxo-5-(trifluoromethyl)pyrrolidin-3-yl)ethyl)imidazo[1,2-b]pyridazin-2-yl)methyl)-1,2,5-oxadiazole-3-carboxamide] |  | 0.4 to 4 |  |
| < 0.4 |  |  | Cc1nonc1C(=O)N[C@H](c1cn2ncc(CC3(CN(C)C)C[C@@H](C(F)(F)F)NC3=O)cc2n1)C1CCC(F)(F)CC1 (single isomer, unassigned) [Example 105, N—((S)-(4,4-Difluorocyclohexyl)(7-(((3S*,5S)-3-((dimethylamino)methyl)-2-oxo-5-(trifluoromethyl)pyrrolidin-3-yl)methyl)imidazo[1,2-b]pyridazin-2-yl)methyl)-4-methyl-1,2,5-oxadiazole-3-carboxamide] |  | < 0.4 |  |
| < 0.4 |  |  | O=C(N[C@H](c1cn2ncc(C[C@@]3(O)C[C@@H](C(F)(F)F)NC3=O)cc2n1)C1CCC(F)(F)CC1)c1nonc1C1CC1 [Example 36] |  | < 0.4 |  |
